Among the data in patent publication US11596639B2, “Substituted indole Mcl-1 inhibitors” (Vanderbilt University, priority 2016, dated 2023) are GI50 and Ki values, retold here.

Each structure is given as a SMILES string.

Assay [1] has as its system H929 human cancer cell lines. Kind of assay: Cellular viability / proliferation (Cell TiterGlo, 72 h). It counts as cell-based. The following applies: Homo sapiens, NCI-H929, 72 h, read-out: GI50 on cellular proliferation of H929 human cancer cell lines, H929 cells, 72 h, Cell TiterGlo, 10% FBS. In a few lines:
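Cells were seeded at 1,000 cells/well in medium with 10% FBS and dosed 24 h later with a 2-fold serial dilution of compound (top concentration 50 μM, final DMSO <1%).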

Assay [2] has as its target Mcl-1 (Homo sapiens (Human), UniProt Q07820). Kind of assay: TR-FRET binding assay, FITC-Bak peptide and MBP-tagged Mcl-1. The conditions noted are these: read-out: Ki for Inhibition of Mcl-1 by TR-FRET assay. How it is done: Compounds are diluted in DMSO in a 16-point, semilog serial dilution scheme. […] The plate was mixed and incubated for 3 hours at room temperature. […] TR-FRET signal is plotted and IC50 and Ki values are calculated in the same manner as the fluorescence polarization anisotropy based competition assays.

Chain of Mcl-1 (Q07820 172-327): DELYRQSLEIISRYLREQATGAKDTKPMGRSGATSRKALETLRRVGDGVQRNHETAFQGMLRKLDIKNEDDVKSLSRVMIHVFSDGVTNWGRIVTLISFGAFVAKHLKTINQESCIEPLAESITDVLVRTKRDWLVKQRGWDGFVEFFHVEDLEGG

In the case of `Cc1cc(OCCCc2c3n(c4c(-c5c(C)nn(C)c5C)c(Cl)ccc24)[C@H](C)CN(c2cn(Cc4cccnc4)c4ccc(C(=O)O)cc24)C3=O)cc(C)c1Cl` [Example 563, (R)-3-(7-chloro-10-(3-(4-chloro-3,5-dimethylphenoxy)propyl)-4-methyl-1-oxo-6-(1,3,5-trimethyl-1H-pyrazol-4-yl)-3,4-dihydropyrazino[1,2-a]indol-2(1H)-yl)-1-(pyridin-3-ylmethyl)-1H-indole-5-carboxylic acid], the GI50 in assay [1] was 1500 nM. In addition, the Ki in assay [2] is below 0.2 nM.

In the case of `Cc1cc(OCCCc2c3n(c4c(-c5c(C)nn(C)c5C)c(Cl)ccc24)[C@H](C)CN(c2cc(N(C)Cc4ccccn4)cc4c(C(=O)O)cn(C)c24)C3=O)cc(C)c1Cl` [Example 564, (R)-7-(7-chloro-10-(3-(4-chloro-3,5-dimethylphenoxy)propyl)-4-methyl-1-oxo-6-(1,3,5-trimethyl-1H-pyrazol-4-yl)-3,4-dihydropyrazino[1,2-a]indol-2(1H)-yl)-1-methyl-5-(methyl(pyridin-2-ylmethyl)amino)-1H-indole-3-carboxylic acid], in assay [1], the GI50 was 590 nM. For the same compound, the Ki in assay [2] came to 0.46 nM.

With `COc1cc(N2C[C@@H](C)n3c(c(CCCOc4cc(C)c(Cl)c(C)c4)c4ccc(Cl)c(-c5c(C)ncnc5C)c43)C2=O)c2c(c1)cc(C(=O)O)n2Cc1cc(C)ccn1` [Example 565, (R)-7-(7-chloro-10-(3-(4-chloro-3,5-dimethylphenoxy)propyl)-6-(4,6-dimethylpyrimidin-5-yl)-4-methyl-1-oxo-3,4-dihydropyrazino[1,2-a]indol-2(1H)-yl)-5-methoxy-1-((4-methylpyridin-2-yl)methyl)-1H-indole-2-carboxylic acid], the GI50 in assay [1] was below 200 nM. For the same compound, the Ki in assay [2] is below 0.2 nM.

As for `Cc1cccc(Cn2c(C(=O)O)cc3cc(OCCN(C)C)cc(N4C[C@@H](C)n5c(c(CCCOc6cc(C)c(Cl)c(C)c6)c6ccc(Cl)c(-c7c(C)ncnc7C)c65)C4=O)c32)n1` [Example 566, (R)-7-(7-chloro-10-(3-(4-chloro-3,5-dimethylphenoxy)propyl)-6-(4,6-dimethylpyrimidin-5-yl)-4-methyl-1-oxo-3,4-dihydropyrazino[1,2-a]indol-2(1H)-yl)-5-(2-(dimethylamino)ethoxy)-1-((6-methylpyridin-2-yl)methyl)-1H-indole-2-carboxylic acid], the GI50 in assay [1] came to 410 nM. Also, in assay [2], the Ki was below 0.2 nM.

Turning to `Cc1cc(OCCCc2c3n(c4c(-c5c(C)nn(C)c5C)c(Cl)ccc24)[C@H](C)CN(c2cn(CCN4CCCC4)c4ccc(-c5ncccn5)cc24)C3=O)cc(C)c1Cl` [Example 567, (R)-7-Chloro-10-(3-(4-chloro-3,5-dimethylphenoxy)propyl)-4-methyl-2-(5-(pyrimidin-2-yl)-1-(2-(pyrrolidin-1-yl)ethyl)-1H-indol-3-yl)-6-(1,3,5-trimethyl-1H-pyrazol-4-yl)-3,4-dihydropyrazino[1,2-a]indol-1(2H)-one], in assay [1], the GI50 came out at 930 nM. The Ki in assay [2] is 9.6 nM.

Take `Cc1cc(OCCCc2c3n(c4c(-c5c(C)nn(C)c5C)c(Cl)ccc24)[C@H](C)CN(c2cn(CCN4CCN(C)CC4)c4ccc(-c5ncccn5)cc24)C3=O)cc(C)c1Cl` [Example 568, (R)-7-Chloro-10-(3-(4-chloro-3,5-dimethylphenoxy)propyl)-4-methyl-2-(1-(2-(4-methylpiperazin-1-yl)ethyl)-5-(pyrimidin-2-yl)-1H-indol-3-yl)-6-(1,3,5-trimethyl-1H-pyrazol-4-yl)-3,4-dihydropyrazino[1,2-a]indol-1(2H)-one]: the GI50 in assay [1] came out at 280 nM. The Ki in assay [2] is 1.8 nM.

For the compound `Cc1cc(OCCCc2c3n(c4c(-c5c(C)nn(C)c5C)c(Cl)ccc24)[C@H](C)CN(c2cn(CCN4CCN(C)CC4)c4ccc(C(=O)O)cc24)C3=O)cc(C)c1Cl` [Example 569, (R)-3-(7-chloro-10-(3-(4-chloro-3,5-dimethylphenoxy)propyl)-4-methyl-1-oxo-6-(1,3,5-trimethyl-1H-pyrazol-4-yl)-3,4-dihydropyrazino[1,2-a]indol-2(1H)-yl)-1-(2-(4-methylpiperazin-1-yl)ethyl)-1H-indole-5-carboxylic acid], in assay [1], the GI50 is 470 nM. For the same compound, in assay [2], the Ki turned out to be 0.49 nM.

With `Cc1cc(OCCCc2c3n(c4c(-c5c(C)nn(C)c5C)c(Cl)ccc24)[C@H](C)CN(c2cccc4cc(C(=O)O)n(Cc5cnn(C)n5)c24)C3=O)cc(C)c1Cl` [Example 570, (R)-7-(7-chloro-10-(3-(4-chloro-3,5-dimethylphenoxy)propyl)-4-methyl-1-oxo-6-(1,3,5-trimethyl-1H-pyrazol-4-yl)-3,4-dihydropyrazino[1,2-a]indol-2(1H)-yl)-1-((2-methyl-2H-1,2,3-triazol-4-yl)methyl)-1H-indole-2-carboxylic acid], the GI50 in assay [1] worked out at 560 nM. Besides, the Ki in assay [2] is below 0.2 nM.

As for `COCCOc1cc(N2C[C@@H](C)n3c(c(CCCOc4cc(C)c(Cl)c(C)c4)c4ccc(Cl)c(-c5c(C)ncnc5C)c43)C2=O)c2c(c1)cc(C(=O)O)n2Cc1cccc(C)n1` [Example 571, (R)-7-(7-chloro-10-(3-(4-chloro-3,5-dimethylphenoxy)propyl)-6-(4,6-dimethylpyrimidin-5-yl)-4-methyl-1-oxo-3,4-dihydropyrazino[1,2-a]indol-2(1H)-yl)-5-(2-methoxyethoxy)-1-((6-methylpyridin-2-yl)methyl)-1H-indole-2-carboxylic acid], in assay [1], the GI50 was below 200 nM. For the same compound, the inhibition constant (Ki) in assay [2] was below 0.2 nM.

For `COc1cc(N2C[C@@H](C)n3c(c(CCCOc4cc(C)c(Cl)c(C)c4)c4ccc(Cl)c(-c5c(C)ncnc5C)c43)C2=O)c2c(c1)cc(C(=O)O)n2Cc1cccc(C)n1` [Example 572, (R)-7-(7-chloro-10-(3-(4-chloro-3,5-dimethylphenoxy)propyl)-6-(4,6-dimethylpyrimidin-5-yl)-4-methyl-1-oxo-3,4-dihydropyrazino[1,2-a]indol-2(1H)-yl)-5-methoxy-1-((6-methylpyridin-2-yl)methyl)-1H-indole-2-carboxylic acid], the GI50 in assay [1] was 300 nM. The Ki in assay [2] is below 0.2 nM.

In the case of `COCCOc1cc(N2C[C@@H](C)n3c(c(CCCOc4cc(C)c(Cl)c(C)c4)c4ccc(Cl)c(-c5c(C)ncnc5C)c43)C2=O)c2c(c1)cc(C(=O)O)n2Cc1cc(C)ccn1` [Example 573, (R)-7-(7-chloro-10-(3-(4-chloro-3,5-dimethylphenoxy)propyl)-6-(4,6-dimethylpyrimidin-5-yl)-4-methyl-1-oxo-3,4-dihydropyrazino[1,2-a]indol-2(1H)-yl)-5-(2-methoxyethoxy)-1-((4-methylpyridin-2-yl)methyl)-1H-indole-2-carboxylic acid], in assay [1], the GI50 was below 200 nM. In addition, the inhibition constant (Ki) in assay [2] is below 0.2 nM.

Regarding `Cc1cc(OCCCc2c3n(c4c(-c5c(C)ncnc5C)c(Cl)ccc24)[C@H](C)CN(c2cn(C)c4ccc(-c5ncn(C)n5)cc24)C3=O)cc(C)c1Cl` [Example 574, (R)-7-Chloro-10-(3-(4-chloro-3,5-dimethylphenoxy)propyl)-6-(4,6-dimethylpyrimidin-5-yl)-4-methyl-2-(1-methyl-5-(1-methyl-1H-1,2,4-triazol-3-yl)-1H-indol-3-yl)-3,4-dihydropyrazino[1,2-a]indol-1(2H)-one], the GI50 in assay [1] amounted to 270 nM. In addition, the Ki in assay [2] came out at 2.4 nM.
